Entries after “also recorded” stand apart in the source; their conditions may differ.

The test system of data set [1] is RSV. In words: Synagis plaque assay in vitro. It counts as cell-based. Conditions: FIG. 8.
The subject of data set [2] is RSV. In words: Virus challenge: viable virus in lung homogenates on Hep-2 monolayers. It counts as in vivo, Mice. Conditions: single IN dose ~2.25 mg/Kg (15% of dose) 3 hours after infection with 1.3×10^5 PFU, 100 ul per well. The procedure: Mice were challenged with 1.3×10^5 plaque forming units. Three hours after infection a test group was treated with a single dose of Palivizumab IN (˜2.25 mg/Kg) and a control group received saline. Three days after infection, lung tissue was collected and homogenized. The subsequent homogenates were dispensed onto Hep-2 monolayers and the cultures were monitored for evidence of viable virus. The total homogenate volume recovered from each animal was approximately 1.5 to 2 mls and the amount placed in each test well was 100 ul.

Consider “Palivizumab: RSV Specific MAB (Palivizumab), Synagis, humanized antibody”, for which the “concentration of antibody capable of blocking high numbers of virus” value in the data set with RSV [1] turned out to be 6 µg/mL. Besides, the “Lung Tissue Collected @ 72 Hours Post Infection (assayed straight), PFU” value with RSV [2] is “no plaque forming units were observed; also recorded: No PFU Observed”. Also, the “peak lung antibody concentration relative to any other delivery route” value (IN 100 μl group, 15 mg/kg) was “at least 2 times”. The “persistence of IN-delivered antibody in lung” value (IN delivery) is “short lived”.
